Series [1] deals with T1, 5HT2B (Homo sapiens, UniProt P41595). Kind of series: 5HT2B binding (Ki of Biological Data Table).
A further series addresses D2S (Homo sapiens, UniProt P14416). The series can be described thus: D2S binding (Ki).
The nature of a further series: HLM T1/2. As to conditions: human, liver microsomes.
In series [2] the target is T1, 5HT2B. The series can be described thus: Functional activity IC50 (5HT2B antagonist). The class given is cell-based.
The target in the next series is hERG (Homo sapiens, UniProt Q12809). The series can be described thus: hERG % inhibition at 1 uM.
hERG, sequence (Q12809 whole entry): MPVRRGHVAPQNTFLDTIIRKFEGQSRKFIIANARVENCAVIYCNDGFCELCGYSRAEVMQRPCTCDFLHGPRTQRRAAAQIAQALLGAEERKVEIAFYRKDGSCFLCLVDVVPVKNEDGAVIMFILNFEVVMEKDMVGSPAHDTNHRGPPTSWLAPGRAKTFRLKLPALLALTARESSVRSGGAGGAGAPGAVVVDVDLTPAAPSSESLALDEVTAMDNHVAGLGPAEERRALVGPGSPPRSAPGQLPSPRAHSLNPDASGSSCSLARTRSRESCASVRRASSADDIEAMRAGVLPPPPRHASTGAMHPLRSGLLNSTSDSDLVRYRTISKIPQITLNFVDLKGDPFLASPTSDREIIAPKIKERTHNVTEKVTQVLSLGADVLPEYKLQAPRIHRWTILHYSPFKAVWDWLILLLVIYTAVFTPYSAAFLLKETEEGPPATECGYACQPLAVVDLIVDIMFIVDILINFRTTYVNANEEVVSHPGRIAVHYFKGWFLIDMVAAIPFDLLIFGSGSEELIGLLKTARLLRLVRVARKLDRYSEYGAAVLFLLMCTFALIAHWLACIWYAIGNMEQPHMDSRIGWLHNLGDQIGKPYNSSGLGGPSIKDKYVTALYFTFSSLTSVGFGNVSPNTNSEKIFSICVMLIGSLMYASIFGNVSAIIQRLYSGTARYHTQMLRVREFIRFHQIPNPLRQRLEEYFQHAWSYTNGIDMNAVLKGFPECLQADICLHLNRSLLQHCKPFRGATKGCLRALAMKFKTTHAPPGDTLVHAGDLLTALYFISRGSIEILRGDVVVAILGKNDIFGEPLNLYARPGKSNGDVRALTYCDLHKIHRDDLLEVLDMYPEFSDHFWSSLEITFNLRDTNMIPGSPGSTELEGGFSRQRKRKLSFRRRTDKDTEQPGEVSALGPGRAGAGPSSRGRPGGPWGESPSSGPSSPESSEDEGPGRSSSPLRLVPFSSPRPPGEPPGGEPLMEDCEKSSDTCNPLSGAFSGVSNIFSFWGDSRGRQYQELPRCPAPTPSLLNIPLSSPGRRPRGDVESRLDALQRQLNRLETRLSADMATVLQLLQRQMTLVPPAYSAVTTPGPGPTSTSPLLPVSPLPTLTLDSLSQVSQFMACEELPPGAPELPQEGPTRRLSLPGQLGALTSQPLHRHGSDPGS
A further series in a line: Rat pK. The settings on record: in vivo; for bioavailability: read-out: Rat pK: % F.
The next series concerns the target T2, 5HT1A (Homo sapiens, UniProt P08908).
T2 sequence (P08908 1-422): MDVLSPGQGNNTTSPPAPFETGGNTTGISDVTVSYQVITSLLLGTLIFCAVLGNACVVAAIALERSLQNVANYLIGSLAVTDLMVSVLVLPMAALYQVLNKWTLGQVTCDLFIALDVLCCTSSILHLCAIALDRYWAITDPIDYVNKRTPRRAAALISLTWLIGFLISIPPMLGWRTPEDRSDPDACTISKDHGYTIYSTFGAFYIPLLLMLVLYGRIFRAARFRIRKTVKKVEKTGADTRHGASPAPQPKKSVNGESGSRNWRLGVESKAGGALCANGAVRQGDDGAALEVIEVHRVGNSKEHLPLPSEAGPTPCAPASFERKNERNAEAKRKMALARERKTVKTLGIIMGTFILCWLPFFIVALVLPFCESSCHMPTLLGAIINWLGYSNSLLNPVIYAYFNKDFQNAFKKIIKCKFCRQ
The series can be described thus: 5HT1A binding (Ki).

The test system of the next series is IP3. Kind of series: IC50 (IP3). The format is cell-based.
The next series in a line: % Protein Binding. The class given is in vitro ADME.
Where [3] appears, read: iv, read-out: Rat pK: T1/2 (iv).
Setting [4] is: po, read-out: Rat pK: T1/2 (po).

Counter-ions that a name gives are not always drawn. Like-named read-outs stand apart in the source and are kept apart here.

D2S, sequence (P14416 1-414 isoform P14416-2): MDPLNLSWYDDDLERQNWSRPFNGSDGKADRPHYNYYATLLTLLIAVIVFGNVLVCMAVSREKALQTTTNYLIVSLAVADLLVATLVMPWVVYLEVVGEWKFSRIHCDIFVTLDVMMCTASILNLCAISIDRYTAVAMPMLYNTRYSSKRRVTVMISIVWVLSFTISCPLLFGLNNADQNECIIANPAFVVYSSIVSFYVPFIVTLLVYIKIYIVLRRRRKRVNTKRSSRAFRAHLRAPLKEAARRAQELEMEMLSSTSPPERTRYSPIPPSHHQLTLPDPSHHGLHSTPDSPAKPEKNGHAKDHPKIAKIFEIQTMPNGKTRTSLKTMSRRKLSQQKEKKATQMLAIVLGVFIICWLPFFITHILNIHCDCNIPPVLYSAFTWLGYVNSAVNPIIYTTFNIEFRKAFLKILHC
T1 sequence (P41595 whole entry, species assumed): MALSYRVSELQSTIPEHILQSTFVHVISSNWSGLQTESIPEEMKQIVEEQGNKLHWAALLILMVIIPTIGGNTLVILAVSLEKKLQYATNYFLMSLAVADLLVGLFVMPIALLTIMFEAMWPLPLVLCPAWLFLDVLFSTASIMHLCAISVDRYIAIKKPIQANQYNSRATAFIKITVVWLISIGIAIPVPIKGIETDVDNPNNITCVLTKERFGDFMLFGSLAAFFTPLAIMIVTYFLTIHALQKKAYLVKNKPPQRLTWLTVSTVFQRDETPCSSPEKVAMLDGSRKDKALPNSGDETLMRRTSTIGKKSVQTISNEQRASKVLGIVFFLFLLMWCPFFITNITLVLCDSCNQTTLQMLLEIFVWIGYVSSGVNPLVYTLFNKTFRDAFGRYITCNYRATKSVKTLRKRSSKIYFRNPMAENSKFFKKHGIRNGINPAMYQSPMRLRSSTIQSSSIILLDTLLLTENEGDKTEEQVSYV

On to `Cc1csc2ncnc(NC3CCN(Cc4ccccc4)CC3)c12` [Example B9, N-(1-benzylpiperidin-4-yl)-5-methylthieno [2,3-d]pyrimidin-4-amine], for which, at 5HT2B [1], the “% at 10 nM (5HT2B)” value worked out at 15%, the “% at 100 nM (5HT2B)” value was 62% and the “% at 1000 nM (5HT2B)” value turned out to be 97%.
On D2S, `Clc1cc2c(NC3CCN(Cc4cccnc4)CC3)ncnc2s1` [Example B47, 6-chloro-N-(1-((pyridin-3-yl)methyl)piperidin-4-yl)thieno [2,3-d]pyrimidin-4-amine, monomaleate] showed a Ki greater than 10000 nM. The compound also came in with a half-life in the series “HLM T1/2” of 12 min.
On to `CC(C)Cc1cc2c(NC3CCN(C(C)c4cccc(F)c4)CC3)ncnc2s1` (centres unmarked) [Example B14, N-(1-(1-(3-fluorophenyl)ethyl)piperidin-4-yl)-6-isobutylthieno[2,3-d] pyrimidin-4-amine, dihydrochloride], for which the IC50 against 5HT2B [2] turned out to be 5300 nM. For the same compound, the “hERG (% Inhibition at 1 uM)” value at hERG stood at 76.1%. The half-life is 30 min in the series “Rat pK” (setting [3]), 30 min in the series “Rat pK” (setting [4]) and less than 15 min in “HLM T1/2”. The bioavailability in the series “Rat pK” (po) was 4%.
On to `N#Cc1cccc(CN2CCC(Nc3ncnc4sc5c(c34)CCCC5)CC2)c1` [Example B11, 3-((4-(5,6,7,8-tetrahydro-benzo[4,5]thieno[2,3-d]pyrimidin-4-ylamino)piperidin-1-yl)methyl)benzonitrile, dihydrochloride], for which, at hERG, the “hERG (% Inhibition at 1 uM)” value was “hERG (% Inhibition at 1 uM): 44.9”. Besides, on 5HT2B [1] (1 nM), the “% at 1 nM (5HT2B)” value is 35%. At 5HT2B [1], the “% at 10 nM (5HT2B)” value amounted to 82% and the “% at 100 nM (5HT2B)” value is 101%. The half-life in “HLM T1/2” is less than 15 min.
With `c1ccc(CN2CCC(Nc3ncnc4sccc34)CC2)cc1` [Example B8, N-(1-benzylpiperidin-4-yl)thieno [2,3-d]pyrimidin-4-amine], on 5HT2B [1], the “% at 10 nM (5HT2B)” value is 13%, the “% at 100 nM (5HT2B)” value is 62% and the “% at 1000 nM (5HT2B)” value stood at 96%.
`c1ccc(CN2CCC(Nc3ncnc4sc5c(c34)CCCC5)CC2)cc1` [Example B1, N-(1-benzylpiperidin-4-yl)5,6,7,8-tetrahydro-benzo[4,5]thieno[2,3-d]pyrimidin-4-amine] displayed an IC50 at 5HT2B [2] of 110 nM. In addition, the half-life in the series “Rat pK” (setting [4]) was 60 min; in “HLM T1/2”, less than 15 min.
As for `Fc1ccc(-c2c(Cl)sc3ncnc(NC4CCN(Cc5cc(F)cc(F)c5)CC4)c23)cc1` [Example B48, N-(1-(3,5-difluorobenzyl)piperidin-4-yl)-6-chloro-5-(4-fluorophenyl) thieno[2,3-d]pyrimidin-4-amine, monomaleate], the affinity on D2S, expressed as Ki, was 1100 nM. The “Ki (5HT1A)” value on 5HT1A is “not Active”. Also, the half-life in the series “HLM T1/2” was less than 15 min.
For the compound `Fc1cc(F)cc(CN2CCC(Nc3ncnc4sccc34)CC2)c1` [Example B30, N-(1-(3,5-difluorobenzyl)piperidin-4-yl) thieno[2,3-d]pyrimidin-4-amine, dihydrochloride], the 50% inhibitory concentration (IC50) at 5HT2B [2] came to 1600 nM. Moreover, on hERG, the “hERG (% Inhibition at 1 uM)” value was found to be 62%. The bioavailability in “Rat pK” (po) was determined as 17%. Also, the half-life in the series “Rat pK” (setting [4]) came out at 48 min; in “HLM T1/2”, 19 min.
For `Cc1sc2ncnc(NC3CCN(CC4CCCCC4)CC3)c2c1C` [Example B35, N-(1-(cyclohexylmethyl)piperidin-4-yl)-5,6-dimethylthieno[2,3-d]pyrimidin-4-amine, dihydrochloride], on hERG, the “hERG (% Inhibition at 1 uM)” value is given as “hERG (% Inhibition at 1 uM): 91.7”. In the series “HLM T1/2”, the half-life was less than 15 min.
Take `CC(c1cc(F)cc(F)c1)N1CCC(Nc2ncnc3sc4c(c23)CCCC4)CC1` (centres unmarked) [Example B17, N-(1-(1-(3,5-difluorophenyl)ethyl)piperidin-4-yl)5,6,7,8-tetrahydro-benzo [4,5]thieno[2,3-d] pyrimidin-4-amine, dihydrochloride]: the IC50 at 5HT2B [2] is 1300 nM. This compound showed a half-life in “HLM T1/2” of less than 15 min.
For the compound `Fc1cc(F)cc(CN2CCC(Nc3ncnc4sc(Cl)cc34)CC2)c1` [Example B33, N-(1-(3,5-difluorobenzyl)piperidin-4-yl)-6-chlorothieno[2,3-d]pyrimidin-4-amine, dihydrochloride], on hERG, the “hERG (% Inhibition at 1 uM)” value is listed as “hERG (% Inhibition at 1 uM): 22.8”. The compound further showed a half-life in “HLM T1/2” of 13 min.
Take `CC(C)c1cc2c(NC3CCN(Cc4cc(F)cc(F)c4)CC3)ncnc2s1` [Example B31, N-(1-(3,5-difluorobenzyl)piperidin-4-yl)-6-isopropylthieno [2,3-d] pyrimidin-4-amine, dihydrochloride]: on 5HT2B [2], the concentration for half-maximal inhibition (IC50) turned out to be 830 nM. In addition, the bioavailability in the series “Rat pK” (po) came out at 10%. Moreover, the half-life in “Rat pK” (setting [4]) was found to be 30 min; in the series “HLM T1/2”, 8 min. Also, the affinity at D2S (NA: Not Active), expressed as Ki, was 230 nM.
Turning to `c1ccc(CN2CCC(Nc3ncnc4scc(-c5ccccc5)c34)CC2)cc1` [Example B6, N-(1-benzylpiperidin-4-yl)-5-phenylthieno [2,3-d]pyrimidin-4-amine], at 5HT2B [1], the “% at 10 nM (5HT2B)” value came out at 38%, the “% at 100 nM (5HT2B)” value turned out to be 91% and the “% at 1000 nM (5HT2B)” value is on record as 101%. This compound displayed a half-life in the series “HLM T1/2” of less than 15 min.
Regarding `CC(c1cccc(F)c1)N1CCC(Nc2ncnc3sccc23)CC1` (centres unmarked) [Example B12, N-(1-(1-(3-fluorophenyl)ethyl)piperidin-4-yl) thieno[2,3-d]pyrimidin-4-amine, dihydrochloride], the “hERG (% Inhibition at 1 uM)” value at hERG is recorded as “hERG (% Inhibition at 1 uM): 58.5”. This compound also yielded a Ki at D2S (NA: Not Active) of 250 nM. For the same compound, the half-life in “HLM T1/2” came out at 11 min.
As for `CN1CCC(N(C)c2ncnc3sc4c(c23)CCCC4)CC1` [Example B5, N-methyl-N-(1-methylpiperidin-4-yl)5,6,7,8-tetrahydro-benzo[4,5] thieno[2,3-d]pyrimidin-4-amine], at 5HT2B [1], the “% at 10 nM (5HT2B)” value is -2%, the “% at 100 nM (5HT2B)” value amounted to 11% and the “% at 1000 nM (5HT2B)” value came out at 67%.
Consider `Fc1ccccc1CN1CCC(Nc2ncnc3sc(Cl)cc23)CC1` [Example B46, N-(1-(2-fluorobenzyl)piperidin-4-yl)-6-chlorothieno[2,3-d]pyrimidin-4-amine, monomaleate], for which the “hERG (% Inhibition at 1 uM)” value on hERG is “hERG (% Inhibition at 1 uM): 39.5”. The compound also came in with a half-life in the series “HLM T1/2” of less than 15 min.
Regarding `CC(C)Cc1cc2c(NC3CCN(C(C)c4c(F)cccc4F)CC3)ncnc2s1` (centres unmarked) [Example B20, N-(1-(1-(2,6-difluorophenyl)ethyl)piperidin-4-yl)-6-isobutylthieno[2,3-d] pyrimidin-4-amine, dihydrochloride], at hERG, the “hERG (% Inhibition at 1 uM)” value is given as “hERG (% Inhibition at 1 uM): 73.4”. For the same compound, the half-life in “HLM T1/2” is less than 15 min.
With `CC(C)c1cc2c(NC3CCN(Cc4cc(F)cc(F)c4)CC3)ncnc2s1` [Example B32, N-(1-(3,5-difluorobenzyl)piperidin-4-yl)-6-isopropylthieno [2,3-d] pyrimidin-4-amine, monomaleate], the values for the half-maximal inhibitory concentration (IC50) at 5HT2B [2] and in the series on IP3 were 450 nM and 1.53 nM, respectively.
With `CC(C)Cc1cc2c(NC3CCN(C(C)c4c(F)cc(F)cc4F)CC3)ncnc2s1` (centres unmarked) [Example B19, N-(1-(1-(2,4,6-trifluorophenyl)ethyl)piperidin-4-yl)-6-isobutylthieno[2,3-d]pyrimidin-4-amine, dihydrochloride], the “hERG (% Inhibition at 1 uM)” value at hERG is reported as “hERG (% Inhibition at 1 uM): 50.2”. The half-life in “HLM T1/2” was less than 15 min.
Consider `Fc1cccc(CN2CCC(Nc3ncnc4sc5c(c34)CCCC5)CC2)c1` [Example B3, N-(1-(3-fluorobenzyl)piperidin-4-yl)5,6,7,8-tetrahydro-bcnzo[4,5]thieno[2,3-d]pyrimidin-4-amine], for which the values for the IC50 on 5HT2B [2] and with IP3 were 100 nM and 22.5 nM, respectively. Also, at hERG, the “hERG (% Inhibition at 1 uM)” value turned out to be 58.5%. At D2S (NA: Not Active), this compound yielded an inhibition constant Ki of 240 nM. In “HLM T1/2”, this compound returned a half-life of 4.3 min.
As to `Oc1cc(C(F)(F)F)cnc1N1CCC(Nc2ncnc3scc(-c4ccccc4)c23)CC1` [Example B7, 2-(4-(5-phenylthieno [2,3-d]pyrimidin-4-ylamino)piperidin-1-yl)-5-(trifluoromethyl) pyridin-3-ol], at 5HT2B [1], the “% at 10 nM (5HT2B)” value was found to be 3%, the “% at 100 nM (5HT2B)” value was determined as 4% and the “% at 1000 nM (5HT2B)” value was found to be 30%.
Compound `CC(C)Cc1cc2c(NC3CCN(C(C)c4cc(F)cc(F)c4)CC3)ncnc2s1` (centres unmarked) [Example B18, N-(1-(1-(3,5-difluorophenyl)ethyl)piperidin-4-yl)-6-isobutylthieno[2,3-d]pyrimidin-4-amine, dihydrochloride] had a 50% inhibitory concentration (IC50) against 5HT2B [2] of 5700 nM. In addition, the “hERG (% Inhibition at 1 uM)” value on hERG stood at 31%. The half-life turned out to be 12 min in the series “Rat pK” (setting [3]), 24 min in “Rat pK” (setting [4]) and 7 min in “HLM T1/2”. In addition, the bioavailability in the series “Rat pK” (po) came out at 3%. Further, the fraction unbound in “% Protein Binding” was found to be 0.062.

The values above are taken from patent US20110082157A1, “Piperidinylamino-Thieno [2,3-D] Pyrimidine Compounds” (priority 2004, published 2011).
